Values belong to the compound of their own block, whether it stands above or below them.
System: 636577-100-R-J1-PDC complex spheroid viability
Assay: Anticancer human tumor 636577-100-R-J1-PDC patient-derived endometrial adenocarcinoma cell line growth inhibition [GQUAD]
Conditions: for IC50: curve of first compound; for viability, T/C: stronger effect = lower value
Procedure, shortened: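 Viability of tumor cells grown as complex spheroids with endothelial and stromal cells, exposed to drug combinations. Top concentration at or near clinical Cmax (else 10 microM), diluted in half-log increments.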

[1] = second compound 0.0316 µM, first compound 0.0316 µM
[2] = second compound 0.0316 µM, first compound 0.1 µM
[3] = second compound 0.0316 µM, first compound 0.316 µM
[4] = second compound 0.0316 µM, first compound 1 µM
[5] = second compound 0.0316 µM, first compound 3.16 µM
[6] = second compound 0.0316 µM, first compound 10 µM
[7] = second compound 0.1 µM, first compound 0.0316 µM
[8] = second compound 0.1 µM, first compound 0.1 µM
[9] = second compound 0.1 µM, first compound 0.316 µM
[10] = second compound 0.1 µM, first compound 1 µM
[11] = second compound 0.1 µM, first compound 3.16 µM
[12] = second compound 0.1 µM, first compound 10 µM
[13] = second compound 0.316 µM, first compound 0.0316 µM
[14] = second compound 0.316 µM, first compound 0.1 µM
[15] = second compound 0.316 µM, first compound 0.316 µM
[16] = second compound 0.316 µM, first compound 1 µM
[17] = second compound 0.316 µM, first compound 3.16 µM
[18] = second compound 0.316 µM, first compound 10 µM
[19] = second compound 1 µM, first compound 0.0316 µM
[20] = second compound 1 µM, first compound 0.1 µM
[21] = second compound 1 µM, first compound 0.316 µM
[22] = second compound 1 µM, first compound 1 µM
[23] = second compound 1 µM, first compound 3.16 µM
[24] = second compound 1 µM, first compound 10 µM
[25] = second compound 3.16 µM, first compound 0.0316 µM
[26] = second compound 3.16 µM, first compound 0.1 µM
[27] = second compound 3.16 µM, first compound 0.316 µM
[28] = second compound 3.16 µM, first compound 1 µM
[29] = second compound 3.16 µM, first compound 3.16 µM
[30] = second compound 3.16 µM, first compound 10 µM
[31] = second compound 10 µM, first compound 0.0316 µM
[32] = second compound 10 µM, first compound 0.1 µM
[33] = second compound 10 µM, first compound 0.316 µM
[34] = second compound 10 µM, first compound 1 µM
[35] = second compound 10 µM, first compound 3.16 µM
[36] = second compound 10 µM, first compound 10 µM
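Further: viability read after seven days of drug exposure.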
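Wherever viability, T/C is given: luminescence signal used as a proxy for viable cells; 100% = DMSO vehicle control wells.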

SMILES: COc1cccc2c1C(=O)c1c(O)c3c(c(O)c1C2=O)CC(O)(C(=O)CO)CC3OC1CC(N)C(O)C(C)O1 (stereo unspecified) + Cc1[nH]c2ccc(F)cc2c1-c1nc2c3cccnc3c3ncccc3c2[nH]1
IC50 (second compound 0.0316 µM): < 0.0316 µM
IC50 (second compound 0.1 µM): < 0.0316 µM
IC50 (second compound 0.316 µM): < 0.0316 µM
IC50 (second compound 1 µM): < 0.0316 µM
IC50 (second compound 3.16 µM): < 0.0316 µM
IC50 (second compound 10 µM): < 0.0316 µM
viability, T/C [1]: 37.8%
viability, T/C [2]: 16.7%
viability, T/C [3]: 15.8%
viability, T/C [4]: 11.2%
viability, T/C [5]: 0.53%
viability, T/C [6]: 0.35%
viability, T/C [7]: 39.7%
viability, T/C [8]: 18%
viability, T/C [9]: 8.25%
viability, T/C [10]: 9.06%
viability, T/C [11]: 0.53%
viability, T/C [12]: 0.34%
viability, T/C [13]: 37%
viability, T/C [14]: 18.9%
viability, T/C [15]: 14%
viability, T/C [16]: 9.89%
viability, T/C [17]: 0.62%
viability, T/C [18]: 0.43%
viability, T/C [19]: 29.9%
viability, T/C [20]: 18.7%
viability, T/C [21]: 12.2%
viability, T/C [22]: 8.92%
viability, T/C [23]: 0.78%
viability, T/C [24]: 0.5%
viability, T/C [25]: 18.3%
viability, T/C [26]: 18.4%
viability, T/C [27]: 16.1%
viability, T/C [28]: 11.4%
viability, T/C [29]: 0.97%
viability, T/C [30]: 0.58%
viability, T/C [31]: 30.1%
viability, T/C [32]: 18.8%
viability, T/C [33]: 16.1%
viability, T/C [34]: 11.9%
viability, T/C [35]: 0.69%
viability, T/C [36]: 0.49%

IC50 (second compound 0.0316 µM): < 0.0316 µM
IC50 (second compound 0.1 µM): < 0.0316 µM
IC50 (second compound 0.316 µM): < 0.0316 µM
IC50 (second compound 1 µM): < 0.0316 µM
IC50 (second compound 3.16 µM): < 0.0316 µM
IC50 (second compound 10 µM): < 0.0316 µM
SMILES: CC1COCCN1c1cc(C2(O)CC3CCC(C2)O3)c2cnn(-c3ccn[nH]3)c2n1 (stereo unspecified) + Cc1cnc(CNC(=O)c2c(=O)c3ccc(N4CCCN(C)CC4)nc3n3c2sc2ccccc23)cn1
viability, T/C [1]: 28.1%
viability, T/C [2]: 18.8%
viability, T/C [3]: 14.3%
viability, T/C [4]: 6.98%
viability, T/C [5]: 2.58%
viability, T/C [6]: 1.35%
viability, T/C [7]: 21%
viability, T/C [8]: 17.8%
viability, T/C [9]: 15.2%
viability, T/C [10]: 6.8%
viability, T/C [11]: 3.54%
viability, T/C [12]: 1.24%
viability, T/C [13]: 17.7%
viability, T/C [14]: 16.3%
viability, T/C [15]: 13.8%
viability, T/C [16]: 7.53%
viability, T/C [17]: 3.12%
viability, T/C [18]: 1.5%
viability, T/C [19]: 15%
viability, T/C [20]: 14.2%
viability, T/C [21]: 11.4%
viability, T/C [22]: 6.81%
viability, T/C [23]: 3.62%
viability, T/C [24]: 1.25%
viability, T/C [25]: 16.1%
viability, T/C [26]: 16.7%
viability, T/C [27]: 13.5%
viability, T/C [28]: 8.88%
viability, T/C [29]: 3.75%
viability, T/C [30]: 1.52%
viability, T/C [31]: 15.6%
viability, T/C [32]: 15.8%
viability, T/C [33]: 14%
viability, T/C [34]: 6.65%
viability, T/C [35]: 2.67%
viability, T/C [36]: 0.14%

SMILES: CCCS(=O)(=O)Nc1ccc(F)c(C(=O)c2c[nH]c3ncc(-c4ccc(Cl)cc4)cc23)c1F + CN(C)c1ccc(Nc2c3ccc(NC(=O)CCN4CCCC4)cc3nc3cc(NC(=O)CCN4CCCC4)ccc23)cc1
IC50 (second compound 0.0316 µM): 6.7 µM
IC50 (second compound 0.1 µM): 6.47 µM
IC50 (second compound 0.316 µM): 6.63 µM
IC50 (second compound 1 µM): 6.62 µM
IC50 (second compound 3.16 µM): < 0.0316 µM
IC50 (second compound 10 µM): < 0.0316 µM
viability, T/C [1]: 101%
viability, T/C [2]: 98.1%
viability, T/C [3]: 118%
viability, T/C [4]: 59.4%
viability, T/C [5]: 87.2%
viability, T/C [6]: 35.4%
viability, T/C [7]: 96.4%
viability, T/C [8]: 79.3%
viability, T/C [9]: 89.1%
viability, T/C [10]: 73.1%
viability, T/C [11]: 80.4%
viability, T/C [12]: 32.8%
viability, T/C [13]: 82.4%
viability, T/C [14]: 83%
viability, T/C [15]: 80.2%
viability, T/C [16]: 69.2%
viability, T/C [17]: 74.9%
viability, T/C [18]: 37.6%
viability, T/C [19]: 79.3%
viability, T/C [20]: 69.8%
viability, T/C [21]: 78.9%
viability, T/C [22]: 89.8%
viability, T/C [23]: 77.7%
viability, T/C [24]: 34.5%
viability, T/C [25]: 35.7%
viability, T/C [26]: 47.9%
viability, T/C [27]: 47.1%
viability, T/C [28]: 43%
viability, T/C [29]: 40.6%
viability, T/C [30]: 18.5%
viability, T/C [31]: 5.58%
viability, T/C [32]: 6.42%
viability, T/C [33]: 6.13%
viability, T/C [34]: 6.09%
viability, T/C [35]: 4.83%
viability, T/C [36]: 1.82%
